Results: PubChem BioAssay (NCI)
Values joined by “and” are separate entries in the source; they are usually repeats but may differ in a detail not shown here. Equal values may be shown once.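 Cultured in 96-well plates, cells were exposed to test compound for 48 hours across five concentrations. At the GI50, growth is halved. TGI is the concentration that stops growth completely.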

Experiments:
Experiment in all cases: NCI-60 cell line screen, 48 h
TK-10 renal = tested on: TK-10 renal
MALME-3M melanoma = tested on: MALME-3M melanoma
OVCAR-8 ovarian = tested on: OVCAR-8 ovarian
SK-MEL-5 melanoma = tested on: SK-MEL-5 melanoma
A498 renal = tested on: A498 renal
SF-295 CNS = tested on: SF-295 CNS
HCC-2998 colon = tested on: HCC-2998 colon
K-562 leukemia = tested on: K-562 leukemia
A549 NSCLC = tested on: A549 NSCLC
HCT-116 colon = tested on: HCT-116 colon

O=c1c(-c2ccccc2)c(SCCN2CCOCC2)n(-c2ccccc2)c(=S)n1-c1ccccc1
TGI (TK-10 renal): > 100 µM | TGI (MALME-3M melanoma): > 100 µM | TGI (OVCAR-8 ovarian): > 100 µM | TGI (SK-MEL-5 melanoma): > 100 µM | TGI (A498 renal): > 100 µM | TGI (SF-295 CNS): > 100 µM | TGI (HCC-2998 colon): > 100 µM | TGI (K-562 leukemia): > 100 µM

O=C(CSSCC(=O)OCCS(=O)(=O)Nc1ccc(Br)cc1)OCCS(=O)(=O)Nc1ccc(Br)cc1
TGI (TK-10 renal): 87.8 µM | TGI (MALME-3M melanoma): 22.8 µM | TGI (A549 NSCLC): > 100 µM | TGI (OVCAR-8 ovarian): 45.2 µM | TGI (SK-MEL-5 melanoma): 26 µM | TGI (A498 renal): 39.8 µM | TGI (SF-295 CNS): > 100 µM | TGI (HCC-2998 colon): 25.9 µM | TGI (K-562 leukemia): > 100 µM

CCCC[C@H]1C(=O)O[C@H](C)[C@H](NC(=O)c2cccc(NC=O)c2OC)C(=O)O[C@@H](C)[C@@H]1OC(=O)CC(C)C (tested in a mixture with another compound)
TGI (TK-10 renal): 30.7 µM | TGI (HCT-116 colon): 28.4 µM | TGI (MALME-3M melanoma): 46.5 µM | TGI (A549 NSCLC): 23 µM | TGI (OVCAR-8 ovarian): 34.7 µM | TGI (SK-MEL-5 melanoma): 27.7 µM | TGI (A498 renal): 22.4 µM | TGI (SF-295 CNS): 30.3 µM | TGI (HCC-2998 colon): 80.6 µM | TGI (K-562 leukemia): 58 µM

O=S(=O)(O)c1ccc2c(N=Nc3ccccc3)c(O)ccc2c1
TGI (TK-10 renal): > 100 µM | TGI (HCT-116 colon): > 100 µM | TGI (MALME-3M melanoma): > 100 µM | TGI (A549 NSCLC): > 100 µM | TGI (OVCAR-8 ovarian): > 100 µM | TGI (SK-MEL-5 melanoma): > 100 µM | TGI (A498 renal): > 100 µM | TGI (SF-295 CNS): > 100 µM | TGI (HCC-2998 colon): > 100 µM | TGI (K-562 leukemia): > 100 µM

Cc1ccc2c3c1[C@@H]1O[C@@H]1c1cccc(c1-3)[C@@H]1O[C@H]21
TGI (TK-10 renal): 38.5 µM | TGI (HCT-116 colon): 27.7 µM | TGI (MALME-3M melanoma): 31 µM | TGI (A549 NSCLC): 34.1 µM | TGI (OVCAR-8 ovarian): 40.5 µM | TGI (SK-MEL-5 melanoma): 30.6 µM | TGI (A498 renal): 43.6 µM | TGI (SF-295 CNS): 31.4 µM | TGI (K-562 leukemia): 37.5 µM

Cc1cc2c(cc1Cl)SC(c1ccccc1O)NS2(=O)=O (stereo unspecified)
TGI (TK-10 renal): > 100 µM | TGI (HCT-116 colon): > 100 µM | TGI (MALME-3M melanoma): 61.8 µM | TGI (A549 NSCLC): > 100 µM | TGI (OVCAR-8 ovarian): > 100 µM | TGI (SK-MEL-5 melanoma): > 100 µM | TGI (A498 renal): > 100 µM | TGI (SF-295 CNS): > 100 µM | TGI (HCC-2998 colon): > 100 µM | TGI (K-562 leukemia): > 100 µM

CCOC(=O)/C(=C\NC(C)(C)CO)c1nc2ccccc2[nH]1
TGI (TK-10 renal): > 100 µM | TGI (HCT-116 colon): > 100 µM | TGI (MALME-3M melanoma): > 100 µM | TGI (A549 NSCLC): > 100 µM | TGI (OVCAR-8 ovarian): > 100 µM | TGI (SK-MEL-5 melanoma): > 100 µM | TGI (A498 renal): > 100 µM | TGI (SF-295 CNS): > 100 µM | TGI (HCC-2998 colon): > 100 µM | TGI (K-562 leukemia): > 100 µM

COc1ccc(N=Nc2c(N)nn(C)c2N)cc1
TGI (TK-10 renal): > 100 µM | TGI (HCT-116 colon): > 100 µM | TGI (MALME-3M melanoma): > 100 µM | TGI (A549 NSCLC): > 100 µM | TGI (OVCAR-8 ovarian): > 100 µM | TGI (SK-MEL-5 melanoma): > 100 µM | TGI (A498 renal): > 100 µM | TGI (SF-295 CNS): > 100 µM | TGI (K-562 leukemia): > 100 µM

CCOC(=O)C12CC(C)=C(C)CC1CCCc1ccccc12 (stereo unspecified)
TGI (TK-10 renal): 77.8 µM | TGI (HCT-116 colon): 34.3 µM | TGI (MALME-3M melanoma): 53.5 µM | TGI (A549 NSCLC): > 100 µM | TGI (OVCAR-8 ovarian): > 100 µM | TGI (SK-MEL-5 melanoma): 37.5 µM | TGI (A498 renal): 62.7 µM | TGI (SF-295 CNS): 86.3 µM | TGI (HCC-2998 colon): 28.1 µM | TGI (K-562 leukemia): 78.2 µM

COc1ccc(N=Cc2ccc(N(CCC#N)S(=O)(=O)c3ccccc3)cc2C)cc1
TGI (TK-10 renal): 87.6 µM | TGI (HCT-116 colon): > 100 µM | TGI (MALME-3M melanoma): 93.7 µM | TGI (A549 NSCLC): > 100 µM | TGI (OVCAR-8 ovarian): > 100 µM | TGI (SK-MEL-5 melanoma): > 100 µM | TGI (SF-295 CNS): > 100 µM | TGI (HCC-2998 colon): > 100 µM | TGI (K-562 leukemia): > 100 µM

COc1ccc2c(c1)CCCc1c-2nc2ccccc2c1N
TGI (TK-10 renal): 23.2 µM | TGI (HCT-116 colon): 18.6 µM | TGI (MALME-3M melanoma): 27.1 µM | TGI (A549 NSCLC): 25.7 µM | TGI (OVCAR-8 ovarian): 26.8 µM | TGI (SK-MEL-5 melanoma): 15.1 µM | TGI (A498 renal): 20.8 µM | TGI (SF-295 CNS): 23.1 µM | TGI (HCC-2998 colon): 3.34 µM | TGI (K-562 leukemia): 58.5 µM

N#Cc1c(-c2ccc(Cl)cc2)c2c([nH]c1=O)-c1cc([N+](=O)[O-])ccc1CCC2
TGI (TK-10 renal): 69.5 µM | TGI (HCT-116 colon): 31.9 µM | TGI (MALME-3M melanoma): > 100 µM | TGI (A549 NSCLC): 82.9 µM | TGI (OVCAR-8 ovarian): 50.8 µM | TGI (SK-MEL-5 melanoma): 40.7 µM | TGI (A498 renal): 37.7 µM | TGI (SF-295 CNS): 45.3 µM | TGI (HCC-2998 colon): 35.7 µM | TGI (K-562 leukemia): > 100 µM

COC(=O)c1ccc2c(c1)sc1nc(-c3ccc(OC)cc3)cn12
TGI (TK-10 renal): > 100 µM | TGI (HCT-116 colon): > 100 µM | TGI (MALME-3M melanoma): > 100 µM | TGI (A549 NSCLC): > 100 µM | TGI (OVCAR-8 ovarian): > 100 µM | TGI (SK-MEL-5 melanoma): 53.6 µM | TGI (A498 renal): > 100 µM | TGI (SF-295 CNS): > 100 µM | TGI (HCC-2998 colon): > 100 µM | TGI (K-562 leukemia): > 100 µM

COc1cc(C2C(=O)C(Cl)N2Nc2nc(C)cc(=O)[nH]2)cc(OC)c1OC (stereo unspecified)
TGI (TK-10 renal): > 100 µM | TGI (HCT-116 colon): 49.7 µM | TGI (A549 NSCLC): > 100 µM | TGI (OVCAR-8 ovarian): > 100 µM | TGI (SK-MEL-5 melanoma): 26.5 µM | TGI (HCC-2998 colon): 33 µM | TGI (K-562 leukemia): 41.1 µM

C[C@H]1CCC/C=C/[C@@H]2C[C@H](O)C[C@H]2[C@H](O)/C=C/C(=O)O1
TGI (TK-10 renal): 2.57 µM and 0.362 µM and 1 µM | GI50 (HCT-116 colon): 0.0115 µM and 0.056 µM | TGI (HCT-116 colon): 0.0478 µM and 0.0573 µM and 0.152 µM | TGI (MALME-3M melanoma): 0.0745 µM and 0.0253 µM and 0.0382 µM | GI50 (A549 NSCLC): < 0.0207 µM and 0.0435 µM and 0.0578 µM | TGI (A549 NSCLC): > 100 µM | GI50 (OVCAR-8 ovarian): 0.043 µM | GI50 (SK-MEL-5 melanoma): < 0.0122 µM | TGI (SK-MEL-5 melanoma): < 0.01 µM and 0.0127 µM and 0.0164 µM | GI50 (A498 renal): < 0.0149 µM | TGI (A498 renal): 0.0821 µM and 0.0376 µM | GI50 (SF-295 CNS): < 0.0181 µM and 0.0524 µM and 0.12 µM | GI50 (HCC-2998 colon): 0.0623 µM and 0.054 µM | TGI (HCC-2998 colon): 0.674 µM and 0.322 µM | GI50 (K-562 leukemia): 0.236 µM
